Broadly, the EC50 is the concentration at which the effect is half-maximal.

Among the data in patent publication US7906507B2, “Oxadiazoanthracene compounds for the treatment of diabetes” (TransTech Pharma, Inc., priority 2008, dated 2011) are EC50 and Emax values, retold here.

This test deals with T1, cloned human GLP-1 receptor (Homo sapiens, UniProt P43220).
T1 construct: expressed in transfected cells; host or cells: CHO or HEK-293 cells
The test is described as follows: Functional cell-based assay: cAMP functional assay. Conditions: for Emax: 0.5 h, percentage relative to maximal GLP-1-induced cAMP accumulation, na = not active in the assay, read-out: % activation. The method, boiled down:
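Monolayer cells incubated 30 min at 37 °C with compounds (0.0001–100 μM) in IMDM containing 100 μM RO 20-1724 PDE inhibitor, 0.1% BSA and 2% DMSO. cAMP measured by HTRF.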
A general note: cAMP levels reflect the balance of adenylyl cyclase and phosphodiesterase activity.

T1 sequence (P43220 24-463): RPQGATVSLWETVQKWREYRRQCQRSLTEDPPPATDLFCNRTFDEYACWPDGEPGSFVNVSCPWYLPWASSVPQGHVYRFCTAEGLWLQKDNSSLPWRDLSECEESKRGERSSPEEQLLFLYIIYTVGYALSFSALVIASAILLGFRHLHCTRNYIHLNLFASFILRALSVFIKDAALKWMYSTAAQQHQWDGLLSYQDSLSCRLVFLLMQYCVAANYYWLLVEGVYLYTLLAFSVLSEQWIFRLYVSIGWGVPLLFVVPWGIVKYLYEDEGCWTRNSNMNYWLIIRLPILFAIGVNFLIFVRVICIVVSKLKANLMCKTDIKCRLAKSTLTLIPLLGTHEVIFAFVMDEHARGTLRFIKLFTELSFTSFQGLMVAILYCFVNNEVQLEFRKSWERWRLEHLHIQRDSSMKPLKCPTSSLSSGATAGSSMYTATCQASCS

Consider `N#Cc1ccc(-c2ccc(C[C@H](NC(=O)[C@@H]3Cc4cc5c(cc4CN3Cc3nccs3)OC(c3ccc(OCc4ccc(Cl)c(Cl)c4)cc3)C(=O)N5)C(=O)O)cc2)cc1` (stereo partly drawn) [Example 49, (S)-3-(4′-Cyano-biphenyl-4-yl)-2-({(S)-3-[4-(3,4-dichloro-benzyloxy)-phenyl]-2-oxo-6-thiazol-2-ylmethyl-2,3,5,6,7,8-hexahydro-1H-4-oxa-1,6-diaza-anthracene-7-carbonyl}-amino)-propionic acid], for which the EC50 stood at 0.557 µM and the Emax is 57%.
For `N#Cc1ccc(-c2ccc(C[C@H](NC(=O)[C@@H]3Cc4cc5c(cc4CN3C(=O)c3ccccn3)OC(c3ccc(OCc4ccc(Cl)c(Cl)c4)cc3)C(=O)N5)C(=O)O)cc2)cc1` (stereo partly drawn) [Example 50, (S)-3-(4′-Cyano-biphenyl-4-yl)-2-{[(S)-3-[4-(3,4-dichloro-benzyloxy)-phenyl]-2-oxo-6-(pyridine-2-carbonyl)-2,3,5,6,7,8-hexahydro-1H-4-oxa-1,6-diaza-anthracene-7-carbonyl]-amino}-propionic acid], in that order: 1.22 µM and 49%.
As to `N#Cc1ccc(-c2ccc(C[C@H](NC(=O)[C@@H]3Cc4cc5c(cc4CN3S(=O)(=O)c3ccccc3[N+](=O)[O-])OC(c3ccc(OCc4ccc(Cl)c(Cl)c4)cc3)C(=O)N5)C(=O)O)cc2)cc1` (stereo partly drawn) [Example 51, (S)-3-(4′-Cyano-biphenyl-4-yl)-2-{[(S)-3-[4-(3,4-dichloro-benzyloxy)-phenyl]-6-(2-nitro-benzenesulfonyl)-2-oxo-2,3,5,6,7,8-hexahydro-1H-4-oxa-1,6-diaza-anthracene-7-carbonyl]-amino}-propionic acid], it took 0.82 µM to reach a half-maximal effect (EC50) and the Emax was 30%.
The like results for `N#Cc1ccc(-c2ccc(C[C@H](NC(=O)[C@@H]3Cc4cc5c(cc4CN3S(=O)(=O)c3cccc([N+](=O)[O-])c3)OC(c3ccc(OCc4ccc(Cl)c(Cl)c4)cc3)C(=O)N5)C(=O)O)cc2)cc1` (stereo partly drawn) [Example 52, (S)-3-(4′-Cyano-biphenyl-4-yl)-2-{[(S)-3-[4-(3,4-dichloro-benzyloxy)-phenyl]-6-(3-nitro-benzenesulfonyl)-2-oxo-2,3,5,6,7,8-hexahydro-1H-4-oxa-1,6-diaza-anthracene-7-carbonyl]-amino}-propionic acid] were, in that order, 0.81 µM and 33%.
Consider `N#Cc1ccc(-c2ccc(C[C@H](NC(=O)[C@@H]3Cc4cc5c(cc4CN3Cc3ccccc3C#N)OC(c3ccc(OCc4ccc(Cl)c(Cl)c4)cc3)C(=O)N5)C(=O)O)cc2)cc1` (stereo partly drawn) [Example 53, (S)-2-({(S)-6-(2-Cyano-benzyl)-3-[4-(3,4-dichloro-benzyloxy)-phenyl]-2-oxo-2,3,5,6,7,8-hexahydro-1H-4-oxa-1,6-diaza-anthracene-7-carbonyl}-amino)-3-(4′-cyano-biphenyl-4-yl)-propionic acid], for which the EC50 was 1.04 µM and the Emax was 52.5%.
Turning to `N#Cc1ccc(-c2ccc(C[C@H](NC(=O)[C@@H]3Cc4cc5c(cc4CN3CC3CC3)OC(c3ccc(OCc4ccc(Cl)c(Cl)c4)cc3)C(=O)N5)C(=O)O)cc2)cc1` (stereo partly drawn) [Example 54, (S)-3-(4′-Cyano-biphenyl-4-yl)-2-({(S)-6cyclopropylmethyl-3-[4-(3,4-dichloro-benzyloxy)-phenyl]-2-oxo-2,3,5,6,7,8-hexahydro-1H-4-oxa-1,6-diaza-anthracene-7-carbonyl}-amino)-propionic acid], the EC50 amounted to 1.08 µM and the Emax was 11.8%.
On to `N#Cc1ccc(-c2ccc(C[C@H](NC(=O)[C@@H]3Cc4cc5c(cc4CN3CC#Cc3ncccn3)OC(c3ccc(OCc4ccc(Cl)c(Cl)c4)cc3)C(=O)N5)C(=O)O)cc2)cc1` (stereo partly drawn) [Example 55, (S)-3-(4′-Cyano-biphenyl-4-yl)-2-{[(S)-3-[4-(3,4-dichloro-benzyloxy)-phenyl]-2-oxo-6-(3-pyrimidin-2-yl-prop-2-ynyl)-2,3,5,6,7,8-hexahydro-1H-4-oxa-1,6-diaza-anthracene-7-carbonyl]-amino}-propionic acid], for which the EC50 came out at 0.216 µM and the Emax worked out at 49.4%.
The like results for `N#Cc1ccc(-c2ccc(C[C@H](NC(=O)[C@@H]3Cc4cc5c(cc4CN3CC#Cc3ccsc3)OC(c3ccc(OCc4ccc(Cl)c(Cl)c4)cc3)C(=O)N5)C(=O)O)cc2)cc1` (stereo partly drawn) [Example 56, (S)-3-(4′-Cyano-biphenyl-4-yl)-2-{[(S)-3-[4-(3,4-dichloro-benzyloxy)-phenyl]-2-oxo-6-(3-thiophen-3-yl-prop-2-ynyl)-2,3,5,6,7,8-hexahydro-1H-4-oxa-1,6-diaza-anthracene-7-carbonyl]-amino}-propionic acid] were, in that order, 0.37 µM and 40.1%.
For `N#Cc1ccc(-c2ccc(C[C@H](NC(=O)[C@@H]3Cc4cc5c(cc4CN3C(=O)c3ccccc3)OC(c3ccc(OCc4c(Cl)cccc4Cl)cc3)C(=O)N5)C(=O)O)cc2)cc1` (stereo partly drawn) [Example 57, (S)-2-({(S)-6-Benzoyl-3-[4-(2,6-dichloro-benzyloxy)-phenyl]-2-oxo-2,3,5,6,7,8-hexahydro-1H-4-oxa-1,6-diaza-anthracene-7-carbonyl}-amino)-3-(4′-cyano-biphenyl-4-yl)-propionic acid], in that order: 0.57 µM and 20%.
The like results for `N#Cc1ccc(-c2ccc(C[C@H](NC(=O)[C@@H]3Cc4cc5c(cc4CN3C(=O)c3ccccc3)OC(c3ccc(OCc4cc(Cl)ccc4Cl)cc3)C(=O)N5)C(=O)O)cc2)cc1` (stereo partly drawn) [Example 58, (S)-2-({(S)-6-Benzoyl-3-[4-(2,5-dichloro-benzyloxy)-phenyl]-2-oxo-2,3,5,6,7,8-hexahydro-1H-4-oxa-1,6-diaza-anthracene-7-carbonyl}-amino)-3-(4′-cyano-biphenyl-4-yl)-propionic acid] were, in that order, 0.565 µM and 45%.
Turning to `N#Cc1ccc(-c2ccc(C[C@H](NC(=O)[C@@H]3Cc4cc5c(cc4CN3C(=O)c3ccccc3)OC(c3ccc(OCc4cccc(Cl)c4)cc3)C(=O)N5)C(=O)O)cc2)cc1` (stereo partly drawn) [Example 59, (S)-2-({(S)-6-Benzoyl-3-[4-(3-chloro-benzyloxy)-phenyl]-2-oxo-2,3,5,6,7,8-hexahydro-1H-4-oxa-1,6-diaza-anthracene-7-carbonyl}-amino)-3-(4′-cyano-biphenyl-4-yl)-propionic acid], it took 0.75 µM to reach a half-maximal effect (EC50) and the Emax amounted to 52%.
The like results for `N#Cc1ccc(-c2ccc(C[C@H](NC(=O)[C@@H]3Cc4cc5c(cc4CN3C(=O)c3ccccc3)OC(c3ccc(OCc4ccc(Cl)cc4)cc3)C(=O)N5)C(=O)O)cc2)cc1` (stereo partly drawn) [Example 60, (S)-2-({(S)-6-Benzoyl-3-[4-(4-chloro-benzyloxy)-phenyl]-2-oxo-2,3,5,6,7,8-hexahydro-1H-4-oxa-1,6-diaza-anthracene-7-carbonyl}-amino)-3-(4′-cyano-biphenyl-4-yl)-propionic acid] were, in that order, 1.63 µM and 62%.
For the compound `N#Cc1ccc(-c2ccc(C[C@H](NC(=O)[C@@H]3Cc4cc5c(cc4CN3C(=O)c3ccccc3)OC(c3ccc(OCc4ccc(Cl)c(C(F)(F)F)c4)cc3)C(=O)N5)C(=O)O)cc2)cc1` (stereo partly drawn) [Example 61, (S)-2-({(S)-6-Benzoyl-3-[4-(4-chloro-3-trifluoromethyl-benzyloxy)-phenyl]-2-oxo-2,3,5,6,7,8-hexahydro-1H-4-oxa-1,6-diaza-anthracene-7-carbonyl}-amino)-3-(4′-cyano-biphenyl-4-yl)-propionic acid], the EC50 worked out at 0.85 µM and the Emax amounted to 29%.
The like results for `COc1ccc(COc2ccc(C3Oc4cc5c(cc4NC3=O)C[C@@H](C(=O)N[C@@H](Cc3ccc(-c4ccc(C#N)cc4)cc3)C(=O)O)N(C(=O)c3ccccc3)C5)cc2)cc1C(F)(F)F` (stereo partly drawn) [Example 62, (S)-2-({(S)-6-Benzoyl-3-[4-(4-methoxy-3-trifluoromethyl-benzyloxy)-phenyl]-2-oxo-2,3,5,6,7,8-hexahydro-1H-4-oxa-1,6-diaza-anthracene-7-carbonyl}-amino)-3-(4′-cyano-biphenyl-4-yl)-propionic acid] were, in that order, 1 µM and 15%.
On to `CC(C)(C)OC(=O)N1Cc2cc3c(cc2C[C@H]1C(=O)N[C@@H](Cc1ccc(-c2ccc(C#N)cc2)cc1)C(=O)O)NC(=O)C(c1ccc(OCc2cnc(Cl)c(Cl)c2)cc1)O3` (stereo partly drawn) [Example 63, (S)-7-[(S)-1-Carboxy-2-(4′-cyano-biphenyl-4-yl)-ethylcarbamoyl]-3-[4-(5,6-dichloro-pyridin-3-ylmethoxy)-phenyl]-2-oxo-1,2,3,5,7,8-hexahydro-4-oxa-1,6-diaza-anthracene-6-carboxylic acid tert-butyl ester], for which a half-maximal response (EC50) required 0.476 µM and the Emax was 23%.
The like results for `N#Cc1ccc(-c2ccc(C[C@H](NC(=O)[C@@H]3Cc4cc5c(cc4CN3C(=O)c3ccccc3)OC(c3ccc(OCc4cnc(Cl)c(Cl)c4)cc3)C(=O)N5)C(=O)O)cc2)cc1` (stereo partly drawn) [Example 64, (S)-2-({(S)-6-Benzoyl-3-[4-(5,6-dichloro-pyridin-3-ylmethoxy)-phenyl]-2-oxo-2,3,5,6,7,8-hexahydro-1H-4-oxa-1,6-diaza-anthracene-7-carbonyl}-amino)-3-(4′-cyano-biphenyl-4-yl)-propionic acid] were, in that order, 0.19 µM and 36%.
`N#Cc1ccc(-c2ccc(C[C@H](NC(=O)[C@@H]3Cc4cc5c(cc4CN3Cc3ccccc3)OC(c3ccc(OCc4cnc(Cl)c(Cl)c4)cc3)C(=O)N5)C(=O)O)cc2)cc1` (stereo partly drawn) [Example 65, (S)-2-({(8)-6-Benzyl-3-[4-(5,6-dichloro-pyridin-3-ylmethoxy)-phenyl]-2-oxo-2,3,5,6,7,8-hexahydro-1H-4-oxa-1,6-diaza-anthracene-7-carbonyl}-amino)-3-(4′-cyano-biphenyl-4-yl)-propionic acid]: the EC50 was 0.22 µM and the Emax was found to be 32%.
